In patent publication US20100323979A1, “METHODS AND COMPOSITIONS FOR INHIBITING PROLIFERATION OF ANEUPLOID CELLS” (priority 2009, published 2010):

Key:
[1] = test system: trisomic primary MEF cells; test: Cell proliferation assay, trisomic MEFs; type: cell-based, mouse; details: for sensitivity in relation to size of the additional chromosome: trisomy 1 versus trisomy 16 or 19
Method: MEF cells were cultured in DMEM supplemented with 10% FBS, 2 mM glutamine, 50 U/ml penicillin, and 50 U/ml streptomycin. […] Lymphoma cells were cultured in IMDM supplemented with 10% FBS, 2 mM glutamine, 50U/ml penicillin, 50 U/ml streptomycin and […] beta-mercaptoethanol. All cells were cultured at 37° C. with 5% CO2 in a humidified environment. In all experiments, cells were counted using a Cellometer Auto T4 automated hemacytometer (Nexcelom). […] After infection with shRNA constructs, GFP+FACS sorted cells were plated at a density of 5×10^5 cells/well in 6-well plates. Cells were treated with AICAR at various concentrations or solvent control then counted at indicated time point.

[2] = test system: autophagy (LC3, BNIP3) in trisomy 13 and 16 MEFs; test: Autophagy markers in trisomic MEFs (LC3 immunoblot, RT-qPCR, GFP-LC3 puncta); type: cell-based, mouse
Method: (§1) Western blotting was performed as previously described (Dickins, R. A. et al., 2005). Proteins were detected by using the following antibodies: anti-AMPKα (Cell signaling technology), anti-Hsp70 (Stressgen), and anti-β actin (Sigma). Secondary antibodies were horseradish peroxidase-conjugated anti-mouse or anti-rabbit IgG (GE Healthcare; 1:5,000).
For GFP-LC3 fluorescence imaging, wild-type GFP-LC3 and trisomic GFP-LC3 MEF cells were exposed to the indicated drug treatments in phenol red-free DMEM. All fluorescence images were acquired using a Nikon digital sight DS-Qil MC camera on a Nikon Eclipse Ti inverted microscope. All single plane images were acquired and processed using the NIS-Element AR 3.0 software.
Total RNA from MEFs was isolated using the RNeasy Mini Kit (Qiagen) according to the manufacturer's instructions. 1μg RNA was used to generate cDNAs using RETROscript kit (Ambion). qPCR was performed by mixing iQ SYBR Green Supermix (Bio-Rad) with the primers described in Table S2, and amplified using a LightCycler 480 II (Roche). The LightCycler software was used to evaluate gene expression level and normalized to a ribosomal reference gene, rpl19.

[3] = test system: Eμ-Myc;Arf−/− lymphoma cells; test: Cell proliferation assay, euploid lymphoma cells; type: cell-based; details: various concentrations, 24 h, FIG. 2A
Method: (§2) All euploid (WT) and aneuploid (Ts) mouse embryonic fibroblast (MEF) lines were established as previously described (Williams, B. R. et al., 2008). MEF cells were cultured in DMEM supplemented with 10% FBS, 2 mM glutamine, 50 U/ml penicillin, and 50 U/ml streptomycin. Eμ-Myc;Arf−/− and Eμ-Myc;p53−/− lymphoma cells were established as previously described (Wendel, H. et al., 2006). Lymphoma cells were cultured in IMDM supplemented with 10% FBS, 2 mM glutamine, 50U/ml penicillin, 50 U/ml streptomycin and […] beta-mercaptoethanol. All cells were cultured at 37° C. with 5% CO2 in a humidified environment. In all experiments, cells were counted using a Cellometer Auto T4 automated hemacytometer (Nexcelom).
(§3) Exponentially growing early passage MEFs were plated at a density of 2×10^5 cells/well in 6-well plates and lymphoma cells were cultured and infected as described previously (Hemann, M. T. et al., 2003). After infection with shRNA constructs, GFP+FACS sorted cells were plated at a density of 5×10^5 cells/well in 6-well plates. Cells were treated with AICAR at various concentrations or solvent control then counted at indicated time point.

[4] = test system: inducible Hsp70 in trisomic MEFs; test: Inducible Hsp70 levels by immunoblotting in trisomic MEFs; type: cell-based, mouse; details: indicated doses, FIG. 4D
Method: as §1

[5] = test system: Eμ-Myc;p53−/− lymphoma cells; test: Cell proliferation assay, aneuploid lymphoma cells; type: cell-based
Method: as §2
AMPK-specific shRNA constructs were generated as described previously (Silva, J. M. et al., 2005). Targeting sequences were selected based on BIOPREDsi design (Huesken, D, et al., 2005).
as §3

Row | Structure (SMILES) | proliferation of trisomy 1, 13, 16 and 19 cells ([1]; 100 nM, cell number after 3 days, FIG. 3A) | proliferation of trisomic/aneuploid cells versus wild-type (cell number) ([1]; single agent, cell number after 3 days, FIG. 3A/3B) | sensitivity in relation to size of the additional chromosome ([1]; FIG. 3A/3B) | LC3 incorporation into autophagosomes ([2]; 24 hours after treatment, LC3-GFP puncta, FIG. 4A-4C) | LC3 expression ([2]; FIG. 4A-4B) | Bnip3 expression ([2]; RT-qPCR normalized to rpl19, FIG. 4B) | sensitivity of euploid immortalized B-cells (cell count relative to control) [3] | Hsp70 activity (levels of inducible Hsp70) [4] | sensitivity of MEFs carrying trisomies (cell count relative to non-treated control) ([1]; trisomic for chromosome 1, 13, 16 or 19, 0-0.5 mM, 72 or 144 h, FIG. 1) | proliferation after knock-down of AMPK ([5]; Eμ-Myc;p53−/− infected with AMPK-specific shRNA, FIG. 2B) | sensitivity of aneuploid B cells (cell count relative to control) ([5]; Eμ-Myc;p53−/−, various concentrations, 24 h, FIG. 2A)
1 | C=CCNC1=C2C[C@@H](C)C[C@H](OC)[C@H](O)[C@@H](C)/C=C(\C)[C@H](OC(N)=O)[C@@H](OC)/C=C\C=C(/C)C(=O)NC(=CC1=O)C2=O [17-AAG, 17-(Allylamino)-17-demethoxygeldanamycin] | impaired | preferentially inhibited | higher sensitivity |  |  |  |  |  |  |  | 
2 | NC(=O)c1ncn([C@@H]2O[C@H](CO)[C@@H](O)[C@H]2O)c1N [AICAR, 5-aminoimidazole-4-carboxamide riboside] |  |  |  | further induced | further induced | further induced | not sensitive | further increase | sensitive | proliferate the same in the presence and absence of AICAR | sensitive
3 | CCN(CC)CCCC(C)Nc1ccnc2cc(Cl)ccc12 (stereo not drawn) [chloroquine] |  |  | correlated with the size of the additional chromosome |  |  |  |  |  |  |  | 
